{"source": "ChEMBL document CHEMBL1201862", "about": "“PubChem BioAssay data set” (2004)", "key": {"[1]": {"tested_on": "HEK293", "assay": "cells", "type": "functional, cell-based", "details": "Homo sapiens"}, "[2]": {"biological_target": "Heat shock protein HSP 90-alpha (Homo sapiens, UniProt P07900)", "type": "functional, organism-based"}, "[3]": {"assay": "miR-122 activators in hepatoma reporter cells, dose response, cell-based, Huh7 psiCHECK-miR122, Renilla luciferase, cherry-picked (AID 651956);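 note: huh7 hepatoma cells stably carrying a psiCHECK-2 miR-122 sensor plasmid; renilla luciferase signal reporting endogenous miR-122 activity after 48 h compound exposure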", "type": "functional"}, "[4]": {"assay": "control 3'UTR Renilla luciferase suppression, dose response, counter-screen for Shn3 inhibitor project, cell-based, Clone20-Shn3RL, cherry-picked (AID 624133)", "type": "functional"}, "[5]": {"tested_on": "HEK293", "assay": "cells", "type": "functional, cell-based", "details": "Homo sapiens", "remark": "listed apart in the source"}, "[6]": {"biological_target": "Apelin receptor (Homo sapiens, UniProt P35414)", "sequence (P35414 whole entry, the tested form may be a part)": "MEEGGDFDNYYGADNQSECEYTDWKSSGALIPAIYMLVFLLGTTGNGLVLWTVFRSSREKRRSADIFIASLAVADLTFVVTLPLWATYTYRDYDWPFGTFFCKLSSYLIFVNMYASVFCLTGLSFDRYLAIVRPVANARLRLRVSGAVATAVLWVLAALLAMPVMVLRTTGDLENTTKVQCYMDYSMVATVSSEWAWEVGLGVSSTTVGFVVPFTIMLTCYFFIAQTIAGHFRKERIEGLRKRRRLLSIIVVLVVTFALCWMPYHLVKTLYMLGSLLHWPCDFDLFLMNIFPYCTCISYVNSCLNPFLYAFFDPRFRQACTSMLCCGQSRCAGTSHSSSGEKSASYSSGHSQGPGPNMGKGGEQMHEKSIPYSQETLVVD", "assay": "APJ beta-arrestin recruitment antagonism, SAR follow-up, selectivity assay for CCR6 antagonist project, cell-based, luminescent, enzyme-fragment complementation (AID 588359)", "type": "functional"}, "[7]": {"biological_target": "Beta-galactosidase (Escherichia coli, UniProt Q8VNN2)", "sequence (Q8VNN2 whole entry)": "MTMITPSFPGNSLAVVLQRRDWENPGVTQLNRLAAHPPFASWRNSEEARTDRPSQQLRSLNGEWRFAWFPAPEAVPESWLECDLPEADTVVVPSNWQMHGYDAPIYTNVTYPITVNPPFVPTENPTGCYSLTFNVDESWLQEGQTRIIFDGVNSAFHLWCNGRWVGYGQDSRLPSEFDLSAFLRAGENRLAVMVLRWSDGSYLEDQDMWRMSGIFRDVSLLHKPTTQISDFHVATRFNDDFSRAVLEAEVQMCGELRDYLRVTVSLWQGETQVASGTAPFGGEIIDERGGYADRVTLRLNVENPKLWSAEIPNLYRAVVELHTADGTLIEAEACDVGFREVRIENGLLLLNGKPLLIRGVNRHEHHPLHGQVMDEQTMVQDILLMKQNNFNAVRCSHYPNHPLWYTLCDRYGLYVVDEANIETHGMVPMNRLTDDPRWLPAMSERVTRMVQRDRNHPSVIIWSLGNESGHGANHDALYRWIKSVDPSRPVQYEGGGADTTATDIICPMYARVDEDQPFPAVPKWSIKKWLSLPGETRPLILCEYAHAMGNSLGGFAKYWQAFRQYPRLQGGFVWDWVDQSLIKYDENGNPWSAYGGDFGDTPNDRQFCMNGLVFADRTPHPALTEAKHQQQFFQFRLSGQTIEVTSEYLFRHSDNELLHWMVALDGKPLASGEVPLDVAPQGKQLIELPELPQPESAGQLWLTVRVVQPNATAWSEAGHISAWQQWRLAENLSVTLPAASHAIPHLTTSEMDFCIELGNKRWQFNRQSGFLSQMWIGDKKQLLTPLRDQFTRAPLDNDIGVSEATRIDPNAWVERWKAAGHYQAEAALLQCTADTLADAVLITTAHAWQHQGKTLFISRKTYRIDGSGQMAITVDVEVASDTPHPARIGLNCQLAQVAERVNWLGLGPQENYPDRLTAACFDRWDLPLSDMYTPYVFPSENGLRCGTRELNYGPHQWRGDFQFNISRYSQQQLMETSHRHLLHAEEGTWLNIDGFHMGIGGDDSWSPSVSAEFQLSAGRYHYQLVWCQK", "assay": "beta-galactosidase enzyme inhibitors and activators, dose response, artefact control for CCR6 antagonist project, biochemical, E. coli enzyme, set 3 (AID 504712)", "type": "functional"}, "[8]": {"biological_target": "FAD-linked sulfhydryl oxidase ALR (Homo sapiens, UniProt P55789)", "sequence (P55789 whole entry)": "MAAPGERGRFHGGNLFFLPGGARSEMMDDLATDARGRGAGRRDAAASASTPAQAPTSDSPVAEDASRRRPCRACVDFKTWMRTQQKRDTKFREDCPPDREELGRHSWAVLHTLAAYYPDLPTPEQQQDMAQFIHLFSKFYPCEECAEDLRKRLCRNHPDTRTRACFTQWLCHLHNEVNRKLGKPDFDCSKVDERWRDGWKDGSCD", "assay": "inhibitors of human ALR sulfhydryl oxidase, dose response, biochemical, H2O2 detection, luminescence, cherry-pick (AID 493248)"}, "[9]": {"tested_on": "HEK293", "assay": "cells", "type": "functional, cell-based", "details": "Homo sapiens", "remark": "listed apart in the source"}, "[10]": {"tested_on": "HEK293", "assay": "NOD2 signaling inhibitors in MDP-stimulated cells, cell-based, uHTS, luminescence (AID 2001)", "type": "functional", "details": "Homo sapiens"}, "[11]": {"assay": "Fluorescence-based cell-based high throughput dose response assay for inhibitors of the interaction of nucleotide-binding oligomerization domain containing 2 (NOD2) and the receptor-interacting serine-threonine kinase 2 (RIPK2).", "type": "functional", "details": "Homo sapiens"}, "[12]": {"tested_on": "INS1", "assay": "beta cell apoptosis inhibitors, cytokine rescue, dose response, luminescence, retest (AID 449756);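 note: cell death triggered by IL-1 beta plus TNF-alpha plus IFN-gamma mixture; protective hits raise ATP signal compared with cytokine alone wells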", "type": "functional, cell-based", "details": "Rattus norvegicus"}, "[13]": {"assay": "Shn3 3'UTR reporter inhibitors, dose response, cell-based, Clone20 osteoblasts, firefly luciferase, cherry-picked (AID 624132)", "type": "functional"}, "[14]": {"assay": "cytotoxicity toward NIH3T3 fibroblasts, dose response, counter-screen, cell-based, ATP luminescence, mouse fibroblasts (AID 2010);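 note: cells exposed to compound for about 90 hours before reading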", "type": "functional"}, "[15]": {"tested_on": "HEK293", "assay": "NOD1 signaling inhibitors, primary screen, cell-based, luminescence, uHTS (AID 1578)", "type": "functional", "details": "Homo sapiens"}, "[16]": {"assay": "inhibitors of intracellular T. cruzi replication, confirmation, NIH3T3 host cells, beta-gal luminescence (AID 2044);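 note: luminescent beta-galactosidase reporter signal from transgenic T. cruzi replicating inside host cells; inhibitors lower the luminescence signal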", "type": "functional, cell-based"}, "[17]": {"assay": "HepG2 cell cytotoxicity, dose response, cytotoxicity control for Shn3 inhibitor project, CellTiter-Glo, cherry-picked (AID 624134)", "type": "functional, cell-based"}, "[18]": {"assay": "HEK293T cytotoxicity, dose response, cytotoxicity control for miR-122 modulator project, cell-based, activator set, cherry-pick (AID 720690);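 note: HEK293T human cells scored for general mammalian cytotoxicity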", "type": "functional"}, "[19]": {"assay": "HEK293T cytotoxicity, dose response, cytotoxicity control for miR-122 modulator project, cell-based, inhibitor set, cherry-pick, set 2 (AID 720697)", "type": "functional"}, "[20]": {"biological_target": "Nucleotide-binding oligomerization domain-containing protein 2 (Homo sapiens, UniProt Q9HC29)", "sequence (Q9HC29 whole entry, the tested form may be a part)": "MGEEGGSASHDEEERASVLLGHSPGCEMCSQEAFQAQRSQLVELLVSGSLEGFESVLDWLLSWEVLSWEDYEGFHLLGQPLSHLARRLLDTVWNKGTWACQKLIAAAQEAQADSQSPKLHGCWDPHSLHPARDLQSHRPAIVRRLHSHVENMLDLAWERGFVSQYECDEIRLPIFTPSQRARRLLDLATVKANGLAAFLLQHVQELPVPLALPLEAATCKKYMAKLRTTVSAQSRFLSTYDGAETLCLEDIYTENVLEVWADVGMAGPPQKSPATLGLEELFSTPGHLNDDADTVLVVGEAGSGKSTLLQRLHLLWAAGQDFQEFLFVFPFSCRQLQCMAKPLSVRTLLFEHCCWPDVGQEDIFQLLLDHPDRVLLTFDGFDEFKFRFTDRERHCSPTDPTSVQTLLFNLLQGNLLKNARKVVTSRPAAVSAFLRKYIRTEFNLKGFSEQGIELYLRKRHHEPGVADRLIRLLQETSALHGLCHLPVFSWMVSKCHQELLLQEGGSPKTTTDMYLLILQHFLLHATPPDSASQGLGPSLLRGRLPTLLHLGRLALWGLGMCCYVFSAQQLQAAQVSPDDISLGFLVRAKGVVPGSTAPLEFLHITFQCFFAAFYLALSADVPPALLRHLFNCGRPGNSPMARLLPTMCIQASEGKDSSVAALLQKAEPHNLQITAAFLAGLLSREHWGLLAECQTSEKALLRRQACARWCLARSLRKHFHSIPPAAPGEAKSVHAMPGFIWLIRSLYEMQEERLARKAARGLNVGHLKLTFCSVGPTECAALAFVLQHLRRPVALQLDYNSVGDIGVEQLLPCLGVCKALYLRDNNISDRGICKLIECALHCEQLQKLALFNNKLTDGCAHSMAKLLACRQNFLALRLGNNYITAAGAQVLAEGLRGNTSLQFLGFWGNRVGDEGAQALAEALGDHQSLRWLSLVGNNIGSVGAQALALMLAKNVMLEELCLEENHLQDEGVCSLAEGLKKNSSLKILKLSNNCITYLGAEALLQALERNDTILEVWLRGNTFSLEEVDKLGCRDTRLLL", "assay": "NOD2 signaling inhibitors, cell-based, luminescence, uHTS, HEK293 (AID 1566)", "type": "functional"}, "[21]": {"biological_target": "5-hydroxytryptamine receptor 5A (Homo sapiens, UniProt P47898)", "sequence (P47898 whole entry)": "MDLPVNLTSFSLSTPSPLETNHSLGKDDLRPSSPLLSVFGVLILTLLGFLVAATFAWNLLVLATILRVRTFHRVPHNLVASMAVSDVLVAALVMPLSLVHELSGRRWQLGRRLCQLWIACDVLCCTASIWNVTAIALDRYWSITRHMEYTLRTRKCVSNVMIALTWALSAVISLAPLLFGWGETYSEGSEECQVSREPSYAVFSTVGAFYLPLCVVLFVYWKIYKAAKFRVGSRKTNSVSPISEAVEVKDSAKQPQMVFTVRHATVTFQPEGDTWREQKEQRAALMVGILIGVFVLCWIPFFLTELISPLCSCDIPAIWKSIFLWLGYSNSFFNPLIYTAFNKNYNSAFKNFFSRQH", "assay": "Counterscreen for agonists of OPRM1-OPRD1 heterodimerization: luminescence-based cell-based high throughput dose response assay to identify agonists of 5-hydroxytryptamine (serotonin) 5A receptor (HTR5A). [Related pubchem assays (depositor defined):AID504326, AID504355, AID504692, AID504904, AID504905]", "type": "functional"}, "[22]": {"biological_target": "Mu-type opioid receptor (Homo sapiens, UniProt P35372)", "sequence (P35372 whole entry)": "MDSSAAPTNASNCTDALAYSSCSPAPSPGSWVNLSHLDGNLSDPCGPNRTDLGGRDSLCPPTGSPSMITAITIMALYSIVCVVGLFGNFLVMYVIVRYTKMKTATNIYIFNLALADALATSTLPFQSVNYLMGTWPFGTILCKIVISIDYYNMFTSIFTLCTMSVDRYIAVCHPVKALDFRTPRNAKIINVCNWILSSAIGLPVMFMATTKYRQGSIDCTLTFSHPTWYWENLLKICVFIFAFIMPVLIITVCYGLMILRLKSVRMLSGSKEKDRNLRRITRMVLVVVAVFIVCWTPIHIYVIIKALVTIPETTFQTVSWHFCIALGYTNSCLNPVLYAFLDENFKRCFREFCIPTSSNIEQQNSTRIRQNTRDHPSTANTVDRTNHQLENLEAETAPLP", "assay": "(§1) Counterscreen for agonists of heterodimerization of the mu 1 (OPRM1) and delta 1 (OPRD1) opioid receptors: Luminescence-based cell-based high throughput dose response assay to identify agonists of OPRM1 homodimerization.", "type": "functional"}, "[23]": {"biological_target": "T1, Heat shock factor protein 1 (Mus musculus, UniProt P38532)", "T1 sequence (P38532 whole entry)": "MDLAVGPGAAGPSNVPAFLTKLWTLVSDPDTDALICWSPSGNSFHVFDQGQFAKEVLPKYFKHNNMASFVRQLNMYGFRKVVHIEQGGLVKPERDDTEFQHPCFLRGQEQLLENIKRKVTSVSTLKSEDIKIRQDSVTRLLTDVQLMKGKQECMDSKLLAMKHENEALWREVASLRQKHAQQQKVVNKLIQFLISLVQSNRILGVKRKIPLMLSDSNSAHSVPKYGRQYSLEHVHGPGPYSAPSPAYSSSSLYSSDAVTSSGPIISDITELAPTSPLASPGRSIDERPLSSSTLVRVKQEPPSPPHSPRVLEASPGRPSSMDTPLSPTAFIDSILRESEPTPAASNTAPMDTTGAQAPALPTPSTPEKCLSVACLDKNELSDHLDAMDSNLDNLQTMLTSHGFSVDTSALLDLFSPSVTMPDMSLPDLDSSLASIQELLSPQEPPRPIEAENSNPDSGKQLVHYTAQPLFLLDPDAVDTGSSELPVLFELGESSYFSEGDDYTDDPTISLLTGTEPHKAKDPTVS", "assay": "inhibition of MG132-induced HSE-luciferase signal, confirmation, cell-based, NIH3T3, luminescence, dose retest (AID 2382)", "type": "functional"}, "[24]": {"biological_target": "Delta-type opioid receptor (Homo sapiens, UniProt P41143)", "sequence (P41143 whole entry)": "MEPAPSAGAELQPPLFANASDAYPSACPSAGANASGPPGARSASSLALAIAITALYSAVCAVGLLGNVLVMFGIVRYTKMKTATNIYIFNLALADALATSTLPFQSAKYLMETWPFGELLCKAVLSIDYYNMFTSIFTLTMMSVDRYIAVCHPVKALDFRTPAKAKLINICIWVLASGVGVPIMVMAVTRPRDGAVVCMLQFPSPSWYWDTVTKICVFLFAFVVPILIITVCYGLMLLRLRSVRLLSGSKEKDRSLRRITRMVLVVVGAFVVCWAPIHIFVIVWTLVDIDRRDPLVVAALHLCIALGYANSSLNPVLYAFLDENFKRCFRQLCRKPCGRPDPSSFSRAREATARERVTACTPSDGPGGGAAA", "assay": "as §1, with “of OPRD1” for “of OPRM1”, “homodimerization. [Related pubchem assays (depositor defined):AID504326, AID504355, AID504692, AID504904, AID504905]” for “homodimerization.”", "type": "functional"}}, "note": "Active and inactive are the calls of the source."}
{"smiles": "Cc1ccc(S(=O)(=O)c2ccc([N+](=O)[O-])cn2)cc1", "values": [{"measurement": "IC50", "setting": "[1]", "value": "5.37 µM (active)"}, {"measurement": "AC50", "setting": "[2]", "value": "4.18 µM (active)"}, {"measurement": "AC50", "setting": "[3]", "value": "10.6 µM (active)"}, {"measurement": "AC50", "setting": "[4]", "value": "3.26 µM (active)"}, {"measurement": "IC50", "setting": "[5]", "value": "> 20 µM (inactive)"}, {"measurement": "IC50", "setting": "[6]", "value": "23.4 µM (inactive)"}, {"measurement": "IC50", "setting": "[7]", "value": "> 66.6 µM (inactive)"}, {"measurement": "AC50", "setting": "[8]", "value": "15.3 µM (active)"}, {"measurement": "IC50", "setting": "[9]", "value": "> 20 µM (inactive)"}, {"measurement": "IC50", "setting": "[10]", "value": "6.5 µM (active)"}, {"measurement": "IC50", "setting": "[11]", "value": "6.33 µM (active)"}, {"measurement": "AC50", "setting": "[12]", "value": "> 260 µM (inactive)"}, {"measurement": "AC50", "setting": "[13]", "value": "3.85 µM (active)"}, {"measurement": "EC50", "setting": "[14]", "value": "3.42 µM (active)"}, {"measurement": "EC50", "setting": "[15]", "value": "6.69 µM (active)"}, {"measurement": "EC50", "setting": "[16]", "value": "2.38 µM (active)"}, {"measurement": "AC50", "setting": "[17]", "value": "12.1 µM (active)"}, {"measurement": "AC50", "setting": "[18]", "value": "4.36 µM (active)"}, {"measurement": "AC50", "setting": "[19]", "value": "7.35 µM (active)"}, {"measurement": "EC50", "setting": "[20]", "value": "> 20 µM (inactive)"}]}
{"smiles": "COc1ccc(/C=C/C(=O)NC(=S)NCCc2ccc(OC)c(OC)c2)cc1", "values": [{"measurement": "EC50", "setting": "[21]", "value": "> 92.5 µM (inactive)"}, {"measurement": "EC50", "setting": "[22]", "value": "> 92.5 µM (inactive)"}, {"measurement": "EC50", "setting": "[23]", "value": "13.6 µM (active)"}, {"measurement": "EC50", "setting": "[24]", "value": "> 92.5 µM (inactive)"}]}
